Assay results published in PubChem BioAssay (NCI).
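Each compound was tested at five concentrations against cells in 96-well plates for 48 hours. TGI: concentration producing complete growth inhibition.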

Legend:
Assay in all cases: DTP human tumour cell line panel, 48 h
SN12C renal = system: SN12C renal
SR leukemia = system: SR leukemia
HOP-62 NSCLC = system: HOP-62 NSCLC
A498 renal = system: A498 renal
786-0 renal = system: 786-0 renal
MOLT-4 leukemia = system: MOLT-4 leukemia
COLO 205 colon = system: COLO 205 colon
A549 NSCLC = system: A549 NSCLC
HCT-15 colon = system: HCT-15 colon
SF-539 CNS = system: SF-539 CNS
SW-620 colon = system: SW-620 colon
SNB-19 CNS = system: SNB-19 CNS
SF-295 CNS = system: SF-295 CNS
NCI-H522 lung = system: NCI-H522 lung
M14 melanoma = system: M14 melanoma
DU-145 prostate = system: DU-145 prostate
CAKI-1 renal = system: CAKI-1 renal
RPMI-8226 leukemia = system: RPMI-8226 leukemia
HOP-92 NSCLC = system: HOP-92 NSCLC
OVCAR-8 ovarian = system: OVCAR-8 ovarian
SF-268 CNS = system: SF-268 CNS
ACHN renal = system: ACHN renal
UO-31 renal = system: UO-31 renal
NCI-H23 lung = system: NCI-H23 lung
NCI-H460 lung = system: NCI-H460 lung
SK-MEL-2 melanoma = system: SK-MEL-2 melanoma
OVCAR-4 ovarian = system: OVCAR-4 ovarian
MDA-MB-435 = system: MDA-MB-435
HT29 colon = system: HT29 colon
RXF 393 renal = system: RXF 393 renal
EKVX NSCLC = system: EKVX NSCLC
MCF7 breast = system: MCF7 breast
UACC-257 melanoma = system: UACC-257 melanoma
U251 CNS = system: U251 CNS
UACC-62 melanoma = system: UACC-62 melanoma
BT-549 breast = system: BT-549 breast
SK-MEL-28 melanoma = system: SK-MEL-28 melanoma
NCI/ADR-RES ovarian = system: NCI/ADR-RES ovarian
TK-10 renal = system: TK-10 renal
CCRF-CEM leukemia = system: CCRF-CEM leukemia
MDA-MB-231 breast = system: MDA-MB-231 breast
SK-OV-3 ovarian = system: SK-OV-3 ovarian
K-562 leukemia = system: K-562 leukemia
OVCAR-5 ovarian = system: OVCAR-5 ovarian
HCT-116 colon = system: HCT-116 colon
HS 578T breast = system: HS 578T breast
KM12 colon = system: KM12 colon
T-47D breast = system: T-47D breast
HCC-2998 colon = system: HCC-2998 colon
MDA-N = system: MDA-N
NCI-H226 lung = system: NCI-H226 lung
MALME-3M melanoma = system: MALME-3M melanoma
SK-MEL-5 melanoma = system: SK-MEL-5 melanoma
HL-60(TB) leukemia = system: HL-60(TB) leukemia
PC-3 prostate = system: PC-3 prostate
OVCAR-3 ovarian = system: OVCAR-3 ovarian
LOX IMVI melanoma = system: LOX IMVI melanoma
IGROV1 ovarian = system: IGROV1 ovarian
SNB-75 CNS = system: SNB-75 CNS

## CCN(CC)CCNC(=O)c1cc2cc(NC(=O)c3cc4cc(N)ccc4[nH]3)ccc2[nH]1
SN12C renal
  TGI: > 100 µM
SR leukemia
  TGI: 55 µM
HOP-62 NSCLC
  TGI: > 100 µM
A498 renal
  TGI: > 100 µM
786-0 renal
  TGI: > 100 µM
MOLT-4 leukemia
  TGI: 48.5 µM
COLO 205 colon
  TGI: 25.6 µM
A549 NSCLC
  TGI: > 100 µM
HCT-15 colon
  TGI: > 100 µM
SF-539 CNS
  TGI: 85.3 µM
SW-620 colon
  TGI: > 100 µM
SNB-19 CNS
  TGI: > 100 µM
SF-295 CNS
  TGI: > 100 µM
NCI-H522 lung
  TGI: 46.7 µM
M14 melanoma
  TGI: 77.1 µM
DU-145 prostate
  TGI: 47.1 µM
CAKI-1 renal
  TGI: > 100 µM
RPMI-8226 leukemia
  TGI: 74.5 µM
HOP-92 NSCLC
  TGI: > 100 µM
OVCAR-8 ovarian
  TGI: > 100 µM
SF-268 CNS
  TGI: > 100 µM
ACHN renal
  TGI: > 100 µM
UO-31 renal
  TGI: > 100 µM
NCI-H23 lung
  TGI: > 100 µM
NCI-H460 lung
  TGI: > 100 µM
SK-MEL-2 melanoma
  TGI: > 100 µM
OVCAR-4 ovarian
  TGI: 27.7 µM
MDA-MB-435
  TGI: 58 µM
HT29 colon
  TGI: > 100 µM
RXF 393 renal
  TGI: 61.3 µM
EKVX NSCLC
  TGI: > 100 µM
MCF7 breast
  TGI: 36.8 µM
UACC-257 melanoma
  TGI: > 100 µM
U251 CNS
  TGI: > 100 µM
UACC-62 melanoma
  TGI: 59.3 µM
BT-549 breast
  TGI: > 100 µM
SK-MEL-28 melanoma
  TGI: > 100 µM
NCI/ADR-RES ovarian
  TGI: > 100 µM
TK-10 renal
  TGI: > 100 µM
CCRF-CEM leukemia
  TGI: 38.9 µM
MDA-MB-231 breast
  TGI: 73.4 µM
SK-OV-3 ovarian
  TGI: > 100 µM
K-562 leukemia
  TGI: > 100 µM
OVCAR-5 ovarian
  TGI: > 100 µM
HCT-116 colon
  TGI: 79.7 µM
HS 578T breast
  TGI: > 100 µM
KM12 colon
  TGI: 28 µM
T-47D breast
  TGI: > 100 µM
HCC-2998 colon
  TGI: 36.3 µM
MDA-N
  TGI: > 100 µM

## O=C1OC(c2ccccc2)=N/C1=C\c1ccc(Br)cc1
SN12C renal
  TGI: > 100 µM
SR leukemia
  TGI: > 100 µM
HOP-62 NSCLC
  TGI: > 100 µM
A498 renal
  TGI: > 100 µM
786-0 renal
  TGI: > 100 µM
MOLT-4 leukemia
  TGI: > 100 µM
NCI-H226 lung
  TGI: > 100 µM
COLO 205 colon
  TGI: > 100 µM
A549 NSCLC
  TGI: > 100 µM
MALME-3M melanoma
  TGI: > 100 µM
SK-MEL-5 melanoma
  TGI: > 100 µM
HCT-15 colon
  TGI: > 100 µM
SF-539 CNS
  TGI: > 100 µM
HL-60(TB) leukemia
  TGI: > 100 µM
SW-620 colon
  TGI: > 100 µM
SNB-19 CNS
  TGI: > 100 µM
SF-295 CNS
  TGI: > 100 µM
NCI-H522 lung
  TGI: > 100 µM
M14 melanoma
  TGI: > 100 µM
DU-145 prostate
  TGI: > 100 µM
CAKI-1 renal
  TGI: > 100 µM
RPMI-8226 leukemia
  TGI: > 100 µM
HOP-92 NSCLC
  TGI: > 100 µM
PC-3 prostate
  TGI: > 100 µM
OVCAR-3 ovarian
  TGI: > 100 µM
OVCAR-8 ovarian
  TGI: > 100 µM
LOX IMVI melanoma
  TGI: > 100 µM
SF-268 CNS
  TGI: > 100 µM
ACHN renal
  TGI: > 100 µM
NCI-H23 lung
  TGI: > 100 µM
NCI-H460 lung
  TGI: > 100 µM
SK-MEL-2 melanoma
  TGI: > 100 µM
IGROV1 ovarian
  TGI: > 100 µM
OVCAR-4 ovarian
  TGI: > 100 µM
MDA-MB-435
  TGI: > 100 µM
HT29 colon
  TGI: > 100 µM
SNB-75 CNS
  TGI: > 100 µM
RXF 393 renal
  TGI: > 100 µM
EKVX NSCLC
  TGI: > 100 µM
MCF7 breast
  TGI: > 100 µM
UACC-257 melanoma
  TGI: > 100 µM
U251 CNS
  TGI: > 100 µM
UACC-62 melanoma
  TGI: > 100 µM
BT-549 breast
  TGI: > 100 µM
SK-MEL-28 melanoma
  TGI: > 100 µM
TK-10 renal
  TGI: > 100 µM
CCRF-CEM leukemia
  TGI: > 100 µM
MDA-MB-231 breast
  TGI: > 100 µM
SK-OV-3 ovarian
  TGI: > 100 µM
K-562 leukemia
  TGI: > 100 µM
OVCAR-5 ovarian
  TGI: > 100 µM
HCT-116 colon
  TGI: > 100 µM
HS 578T breast
  TGI: > 100 µM
KM12 colon
  TGI: > 100 µM
T-47D breast
  TGI: > 100 µM
HCC-2998 colon
  TGI: > 100 µM
MDA-N
  TGI: > 100 µM
